# Data published in PubChem BioAssay (NCI).
#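 Compound exposure: 48 hours, 5 concentrations, 96-well plates. TGI denotes the concentration required for complete inhibition of growth.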
# Tests used:
# Assay in all cases: NCI-60 cell line screen, 48 h
# U251 CNS = test system: U251 CNS
# HCT-15 colon = test system: HCT-15 colon
# MDA-N = test system: MDA-N
# NCI/ADR-RES ovarian = test system: NCI/ADR-RES ovarian
# EKVX NSCLC = test system: EKVX NSCLC
# HCC-2998 colon = test system: HCC-2998 colon
# 786-0 renal = test system: 786-0 renal
# T-47D breast = test system: T-47D breast
# SF-539 CNS = test system: SF-539 CNS
# TK-10 renal = test system: TK-10 renal
# CCRF-CEM leukemia = test system: CCRF-CEM leukemia
# OVCAR-4 ovarian = test system: OVCAR-4 ovarian
# OVCAR-5 ovarian = test system: OVCAR-5 ovarian
# RPMI-8226 leukemia = test system: RPMI-8226 leukemia
# MALME-3M melanoma = test system: MALME-3M melanoma
# SNB-19 CNS = test system: SNB-19 CNS
# K-562 leukemia = test system: K-562 leukemia
# SK-MEL-2 melanoma = test system: SK-MEL-2 melanoma
# OVCAR-8 ovarian = test system: OVCAR-8 ovarian
# DU-145 prostate = test system: DU-145 prostate
# HOP-92 NSCLC = test system: HOP-92 NSCLC
# SK-OV-3 ovarian = test system: SK-OV-3 ovarian
# NCI-H226 lung = test system: NCI-H226 lung
# UO-31 renal = test system: UO-31 renal
# NCI-H23 lung = test system: NCI-H23 lung
# NCI-H522 lung = test system: NCI-H522 lung
# SN12C renal = test system: SN12C renal
# RXF 393 renal = test system: RXF 393 renal
# HCT-116 colon = test system: HCT-116 colon
# NCI-H460 lung = test system: NCI-H460 lung
# CAKI-1 renal = test system: CAKI-1 renal
# SW-620 colon = test system: SW-620 colon
# PC-3 prostate = test system: PC-3 prostate
# HOP-62 NSCLC = test system: HOP-62 NSCLC
# MOLT-4 leukemia = test system: MOLT-4 leukemia
# MDA-MB-435 = test system: MDA-MB-435
# LOX IMVI melanoma = test system: LOX IMVI melanoma
# SF-268 CNS = test system: SF-268 CNS
# KM12 colon = test system: KM12 colon
# A498 renal = test system: A498 renal
# MCF7 breast = test system: MCF7 breast
# UACC-62 melanoma = test system: UACC-62 melanoma
# BT-549 breast = test system: BT-549 breast
# IGROV1 ovarian = test system: IGROV1 ovarian
# MDA-MB-231 breast = test system: MDA-MB-231 breast
# SR leukemia = test system: SR leukemia
# HS 578T breast = test system: HS 578T breast
# SF-295 CNS = test system: SF-295 CNS
# A549 NSCLC = test system: A549 NSCLC
# HT29 colon = test system: HT29 colon
# SK-MEL-5 melanoma = test system: SK-MEL-5 melanoma
# UACC-257 melanoma = test system: UACC-257 melanoma
# ACHN renal = test system: ACHN renal
# SNB-75 CNS = test system: SNB-75 CNS
# COLO 205 colon = test system: COLO 205 colon
# M14 melanoma = test system: M14 melanoma
# OVCAR-3 ovarian = test system: OVCAR-3 ovarian
# SK-MEL-28 melanoma = test system: SK-MEL-28 melanoma
# HL-60(TB) leukemia = test system: HL-60(TB) leukemia
smiles,measurement,setting,value
O=c1[nH]c(=O)n(C2OC(CO)C(O)C2O)c2ncc(-c3ccc(-c4ccccc4)cc3)nc12 (stereo unspecified),TGI,U251 CNS,> 20 µM
same,TGI,HCT-15 colon,> 20 µM
same,TGI,MDA-N,> 20 µM
same,TGI,NCI/ADR-RES ovarian,> 20 µM
same,TGI,EKVX NSCLC,> 20 µM
same,TGI,HCC-2998 colon,> 20 µM
same,TGI,786-0 renal,> 20 µM
same,TGI,T-47D breast,> 20 µM
same,TGI,SF-539 CNS,> 20 µM
same,TGI,TK-10 renal,> 20 µM
same,TGI,CCRF-CEM leukemia,> 20 µM
same,TGI,OVCAR-4 ovarian,> 20 µM
same,TGI,OVCAR-5 ovarian,> 20 µM
same,TGI,RPMI-8226 leukemia,> 20 µM
same,TGI,MALME-3M melanoma,> 20 µM
same,TGI,SNB-19 CNS,> 20 µM
same,TGI,K-562 leukemia,> 20 µM
same,TGI,SK-MEL-2 melanoma,> 20 µM
same,TGI,OVCAR-8 ovarian,> 20 µM
same,TGI,DU-145 prostate,> 20 µM
same,TGI,HOP-92 NSCLC,> 20 µM
same,TGI,SK-OV-3 ovarian,> 20 µM
same,TGI,NCI-H226 lung,> 20 µM
same,TGI,UO-31 renal,> 20 µM
same,TGI,NCI-H23 lung,> 20 µM
same,TGI,NCI-H522 lung,> 20 µM
same,TGI,SN12C renal,> 20 µM
same,TGI,RXF 393 renal,> 20 µM
same,TGI,HCT-116 colon,> 20 µM
same,TGI,NCI-H460 lung,> 20 µM
same,TGI,CAKI-1 renal,> 20 µM
same,TGI,SW-620 colon,> 20 µM
same,TGI,PC-3 prostate,> 20 µM
same,TGI,HOP-62 NSCLC,> 20 µM
same,TGI,MOLT-4 leukemia,> 20 µM
same,TGI,MDA-MB-435,> 20 µM
same,TGI,LOX IMVI melanoma,> 20 µM
same,TGI,SF-268 CNS,> 20 µM
same,TGI,KM12 colon,> 20 µM
same,TGI,A498 renal,> 20 µM
same,TGI,MCF7 breast,> 20 µM
same,TGI,UACC-62 melanoma,> 20 µM
same,TGI,BT-549 breast,> 20 µM
same,TGI,IGROV1 ovarian,> 20 µM
same,TGI,MDA-MB-231 breast,> 20 µM
same,TGI,SR leukemia,> 20 µM
same,TGI,HS 578T breast,> 20 µM
same,TGI,SF-295 CNS,> 20 µM
same,TGI,A549 NSCLC,> 20 µM
same,TGI,HT29 colon,> 20 µM
same,TGI,SK-MEL-5 melanoma,> 20 µM
same,TGI,UACC-257 melanoma,> 20 µM
same,TGI,ACHN renal,> 20 µM
same,TGI,SNB-75 CNS,> 20 µM
same,TGI,COLO 205 colon,> 20 µM
O=Nc1c(-c2c(O)[nH]c3ccccc23)[nH]c2ccccc12,TGI,U251 CNS,> 65.4 µM
same,TGI,HCT-15 colon,> 87.5 µM
same,TGI,MDA-N,> 47.4 µM
same,TGI,NCI/ADR-RES ovarian,> 100 µM
same,TGI,EKVX NSCLC,9.12 µM
same,TGI,M14 melanoma,25.9 µM
same,TGI,HCC-2998 colon,16.3 µM
same,TGI,786-0 renal,> 49.9 µM
same,TGI,T-47D breast,> 48.7 µM
same,TGI,SF-539 CNS,> 100 µM
same,TGI,TK-10 renal,55.2 µM
same,TGI,CCRF-CEM leukemia,29.7 µM
same,TGI,OVCAR-4 ovarian,34.1 µM
same,TGI,OVCAR-5 ovarian,> 86.4 µM
same,TGI,RPMI-8226 leukemia,9.95 µM
same,TGI,MALME-3M melanoma,27.8 µM
same,TGI,SNB-19 CNS,> 100 µM
same,TGI,K-562 leukemia,> 100 µM
same,TGI,SK-MEL-2 melanoma,7.62 µM
same,TGI,OVCAR-8 ovarian,> 45.5 µM
same,TGI,DU-145 prostate,31 µM
same,TGI,HOP-92 NSCLC,> 29.6 µM
same,TGI,SK-OV-3 ovarian,21.2 µM
same,TGI,UO-31 renal,13.4 µM
same,TGI,NCI-H23 lung,> 44.6 µM
same,TGI,NCI-H522 lung,20.9 µM
same,TGI,SN12C renal,13.3 µM
same,TGI,RXF 393 renal,13.2 µM
same,TGI,HCT-116 colon,> 29.6 µM
same,TGI,NCI-H460 lung,28.7 µM
same,TGI,CAKI-1 renal,41 µM
same,TGI,SW-620 colon,> 100 µM
same,TGI,OVCAR-3 ovarian,> 89.7 µM
same,TGI,SK-MEL-28 melanoma,27.7 µM
same,TGI,PC-3 prostate,28.1 µM
same,TGI,HOP-62 NSCLC,> 48.6 µM
same,TGI,MOLT-4 leukemia,> 100 µM
same,TGI,MDA-MB-435,> 39.7 µM
same,TGI,LOX IMVI melanoma,41.4 µM
same,TGI,SF-268 CNS,> 74.1 µM
same,TGI,KM12 colon,> 38.7 µM
same,TGI,A498 renal,13.9 µM
same,TGI,MCF7 breast,> 23.9 µM
same,TGI,UACC-62 melanoma,11.1 µM
same,TGI,BT-549 breast,30 µM
same,TGI,IGROV1 ovarian,22 µM
same,TGI,MDA-MB-231 breast,21.2 µM
same,TGI,SR leukemia,> 100 µM
same,TGI,HS 578T breast,> 29.1 µM
same,TGI,SF-295 CNS,99.2 µM
same,TGI,A549 NSCLC,> 55.1 µM
same,TGI,HT29 colon,> 57.8 µM
same,TGI,SK-MEL-5 melanoma,26.4 µM
same,TGI,UACC-257 melanoma,> 72.3 µM
same,TGI,HL-60(TB) leukemia,12.3 µM
same,TGI,ACHN renal,> 32.1 µM
same,TGI,SNB-75 CNS,16.5 µM
same,TGI,COLO 205 colon,34.8 µM
Sc1ccc2ccccc2c1CNCc1ccccc1,TGI,U251 CNS,30.8 µM
same,TGI,HCT-15 colon,88.6 µM
same,TGI,MDA-N,37.6 µM
same,TGI,NCI/ADR-RES ovarian,98.1 µM
same,TGI,EKVX NSCLC,78.3 µM
same,TGI,M14 melanoma,27.6 µM
same,TGI,HCC-2998 colon,> 100 µM
same,TGI,786-0 renal,37 µM
same,TGI,T-47D breast,> 100 µM
same,TGI,SF-539 CNS,29.3 µM
same,TGI,TK-10 renal,> 100 µM
same,TGI,CCRF-CEM leukemia,54.1 µM
same,TGI,OVCAR-4 ovarian,40.6 µM
same,TGI,OVCAR-5 ovarian,34 µM
same,TGI,RPMI-8226 leukemia,31.9 µM
same,TGI,MALME-3M melanoma,78.5 µM
same,TGI,SNB-19 CNS,> 100 µM
same,TGI,K-562 leukemia,39 µM
same,TGI,SK-MEL-2 melanoma,45.5 µM
same,TGI,OVCAR-8 ovarian,65.8 µM
same,TGI,DU-145 prostate,69.3 µM
same,TGI,SK-OV-3 ovarian,41.1 µM
same,TGI,NCI-H226 lung,12.3 µM
same,TGI,UO-31 renal,26.9 µM
same,TGI,NCI-H23 lung,59.7 µM
same,TGI,NCI-H522 lung,18.3 µM
same,TGI,SN12C renal,25.7 µM
same,TGI,RXF 393 renal,26 µM
same,TGI,HCT-116 colon,33.4 µM
same,TGI,NCI-H460 lung,> 100 µM
same,TGI,CAKI-1 renal,43.8 µM
same,TGI,SW-620 colon,> 100 µM
same,TGI,OVCAR-3 ovarian,31.4 µM
same,TGI,SK-MEL-28 melanoma,69.7 µM
same,TGI,PC-3 prostate,> 100 µM
same,TGI,HOP-62 NSCLC,34.9 µM
same,TGI,MOLT-4 leukemia,6.59 µM
same,TGI,MDA-MB-435,29.9 µM
same,TGI,LOX IMVI melanoma,18.6 µM
same,TGI,SF-268 CNS,30.3 µM
same,TGI,KM12 colon,30.8 µM
same,TGI,A498 renal,95.5 µM
same,TGI,MCF7 breast,> 100 µM
same,TGI,UACC-62 melanoma,28.6 µM
same,TGI,BT-549 breast,48.7 µM
same,TGI,IGROV1 ovarian,6.97 µM
same,TGI,MDA-MB-231 breast,43.9 µM
same,TGI,SR leukemia,15.4 µM
same,TGI,HS 578T breast,67.2 µM
same,TGI,SF-295 CNS,47.3 µM
same,TGI,A549 NSCLC,> 100 µM
same,TGI,HT29 colon,> 100 µM
same,TGI,SK-MEL-5 melanoma,25.3 µM
same,TGI,UACC-257 melanoma,> 100 µM
same,TGI,HL-60(TB) leukemia,26.9 µM
same,TGI,ACHN renal,57.9 µM
same,TGI,SNB-75 CNS,44.2 µM
same,TGI,COLO 205 colon,28.2 µM
